Patent US20250332173A1, “COMPOUNDS AND METHODS FOR MODULATING NUCLEIC ACID SPLICING” (REMIX THERAPEUTICS INC., priority 2021, published 2025)
Like-named read-outs stand apart in the source and are kept apart here.

How the values were obtained:
Type in all cases: cell-based, human
[1] = test system: MYB mRNA; test: RT-qPCR splicing assay, MYB canonical junction (CJ) and alternative junction (AJ) mRNA; conditions: Homo sapiens; for AC50: increase in MYB alternative junction (AJ) mRNA, read-out: MYB AJ AC50
In short: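 Splicing switches were read by TaqMan RT-qPCR on lysates, quantifying exon-exon junctions of the canonical and alternative-exon isoforms. Lysates came from K562 (GAPDH/GUSB reference) or A673 (PPIA reference) cells exposed 24 h to compound in 11 threefold steps from 10 uM, with DMSO ≤0.25%.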

[2] = test system: Target C; test: HiBiT protein abundance assay, Target C (Promega Nano-Glo HiBiT Lytic Detection System, knock-in K562 cell line); conditions: Homo sapiens, K562, 24 h, HiBiT K562 cell line, 24 hours, top dose 10 μM; read-out: Effect on protein abundance, Target C (IC50 category)
In short: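 Protein abundance was read by Nano-Glo HiBiT lytic luminescence after 24 h compound exposure (10-point, threefold series from 10 μM final) of HiBiT knock-in K562 cells. Parental K562 served as baseline; the 50%-abundance concentration was interpolated from a four-parameter logistic fit.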

[3] = test system: SMN2 mRNA; test: RT-qPCR splicing assay, SMN2 canonical junction (CJ) mRNA; conditions: Homo sapiens
In short: (§1)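 Exposure: 24 h, 37 °C, 11-point 3-fold dilutions from 10 uM final, DMSO at or below 0.25%, in A673 or K562 cells. Detection: cell-lysate RT-qPCR of canonical junction mRNA relative to GAPDH, GUSB or PPIA.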

[4] = test system: Target C; test: RT-qPCR splicing assay panel, Target C canonical junction (CJ) mRNA; conditions: Homo sapiens
In short: as §1

[5] = Table 5 panel, canonical junction qPCR, compound concentration having 50% response in CJ decrease, read-out: MYB IC50 (decrease in CJ mRNA levels)
[6] = decrease in MYB canonical junction (CJ) mRNA, RT-qPCR, read-out: MYB CJ IC50
[7] = Table 5 panel, canonical junction qPCR, compound concentration having 50% response in CJ decrease, read-out: SMN2 IC50 (decrease in CJ mRNA levels)
[8] = Table 5 panel, canonical junction qPCR, compound concentration having 50% response in CJ decrease, read-out: Target C IC50 (decrease in CJ mRNA levels)
[9] = canonical junction qPCR panel, Table 5, read-out: MYB (decrease in CJ mRNA levels, IC50)
[10] = canonical junction qPCR panel, Table 5, read-out: SMN2 (decrease in CJ mRNA levels, IC50)
[11] = canonical junction qPCR panel, Table 5, read-out: Target C (decrease in CJ mRNA levels, IC50)

Cc1cc(-c2cc3ccn(C4CCN(C5COC5)CC4)c(=O)c3cn2)cc2cn(C)nc12 [Compound 1209, 6-(2,7-dimethyl-2H-indazol-5-yl)-2-(1-(oxetan-3-yl)piperidin-4-yl)-2,7-naphthyridin-1(2H)-one-1]
IC50 [1, 5]: 0.1 to 1 µM | IC50 [1, 6]: 0.1 to 1 µM | AC50 ([1]; RT-qPCR): 0.1 to 1 µM | IC50 [2]: 0.1 to 1 µM | IC50 [3, 7]: 0.1 to 1 µM | IC50 [4, 8]: 0.1 to 1 µM

Cn1cc2cc(-c3ccc4c(=O)n([C@@H]5CCNC6(CC6)C5)ccc4n3)c(O)cc2n1 [Compound 1246]
IC50 [1, 9]: < 0.1 µM | IC50 [1, 6]: < 0.1 µM | AC50 ([1]; RT-qPCR): < 0.1 µM | IC50 [2]: 0.1 to 1 µM | IC50 [3, 10]: < 0.1 µM | IC50 [4, 11]: 1 to 10 µM

Cc1c(O)c(-c2ncc3c(=O)n([C@@H]4CCN[C@H](C)C4)ccc3n2)cc2cn(C)nc12 [Compound 1434, 2-(6-hydroxy-2,7-dimethyl-indazol-5-yl)-6-(2-methyl-4-piperidyl)pyrido[4,3-d]pyrimidin-5-one]
IC50 [1, 9]: 0.1 to 1 µM | IC50 [1, 6]: 0.1 to 1 µM | AC50 ([1]; RT-qPCR): 0.1 to 1 µM | IC50 [2]: 1 to 10 µM | IC50 [3, 10]: < 0.1 µM | IC50 [4, 11]: 1 to 10 µM

CCN1CCC(n2ccc3cc(-c4cc(C)c5nn(C)cc5c4)ncc3c2=O)CC1 [Compound 1207, 6-(2,7-dimethyl-2H-indazol-5-yl)-2-(1-ethylpiperidin-4-yl)-2,7-naphthyridin-1(2H)-one]
IC50 [1, 5]: 1 to 10 µM | IC50 [1, 6]: 1 to 10 µM | AC50 ([1]; RT-qPCR): 1 to 10 µM | IC50 [2]: 1 to 10 µM | IC50 [3, 7]: < 0.1 µM | IC50 [4, 8]: 1 to 10 µM

Cc1c(O)c(-c2ncc3c(=O)n(C4CCN(C)CC4)ccc3n2)cc2cn(C)nc12 [Compound 1304]
IC50 [1, 9]: 0.1 to 1 µM | IC50 [1, 6]: 0.1 to 1 µM | AC50 ([1]; RT-qPCR): 0.1 to 1 µM | IC50 [2]: 1 to 10 µM | IC50 [3, 10]: < 0.1 µM | IC50 [4, 11]: 1 to 10 µM

Cc1c(O)c(-c2ncc3c(=O)n([C@H]4CCN[C@@H](C)C4)ccc3n2)cc2cn(C)nc12 [Compound 1441, 2-(6-hydroxy-2,7-dimethyl-indazol-5-yl)-6-(2-methyl-4-piperidyl)pyrido[4,3-d]pyrimidin-5-one]
IC50 [1, 9]: < 0.1 µM | IC50 [1, 6]: < 0.1 µM | AC50 ([1]; RT-qPCR): < 0.1 µM | IC50 [2]: 0.1 to 1 µM | IC50 [3, 10]: < 0.1 µM | IC50 [4, 11]: 0.1 to 1 µM

COc1c(-c2ccc3c(=O)n(C4CCNCC4)ccc3n2)cc2cn(C)nc2c1C [Compound 1243]
IC50 [1, 9]: > 10 µM | IC50 [1, 6]: > 10 µM | AC50 ([1]; RT-qPCR): > 10 µM | IC50 [2]: > 10 µM | IC50 [3, 10]: > 10 µM | IC50 [4, 11]: > 10 µM

Cc1c(O)c(-c2ncc3c(=O)n([C@@H]4C[C@H]5C[C@@H]4CN5)ccc3n2)cc2cn(C)nc12 [Compound 1445, 6-[(1R,4R,5R)-2-azabicyclo[2.2.1]heptan-5-yl]-2(6-hydroxy-2,7-dimethyl-indazol-5-yl)pyrido[4,3-d]pyrimidin-5-one]
IC50 [1, 9]: 1 to 10 µM | IC50 [1, 6]: > 10 µM | AC50 ([1]; RT-qPCR): 1 to 10 µM | IC50 [2]: > 10 µM | IC50 [3, 10]: 0.1 to 1 µM | IC50 [4, 11]: > 10 µM

Cc1c(O)c(-c2ncc3c(=O)n([C@@H]4C[C@H]5C[C@@H]4CN5)ccc3n2)cc2cn(C)nc12 (stereo in doubt) [Compound 1446, 6-[(1R,4R,5R)-2-azabicyclo[2.2.1]heptan-5-yl]-2-(6-hydroxy-2,7-dimethyl-indazol-5-yl)pyrido[4,3-d]pyrimidin-5-one]
IC50 [1, 9]: 1 to 10 µM | IC50 [1, 6]: 1 to 10 µM | AC50 ([1]; RT-qPCR): 1 to 10 µM | IC50 [2]: > 10 µM | IC50 [3, 10]: 0.1 to 1 µM | IC50 [4, 11]: > 10 µM

CN1CCC(Nc2ccc3c(=O)n(-c4ccc5cn(C)nc5c4)cnc3c2)CC1 [Compound 203]
IC50 [1, 5]: > 10 µM | IC50 [1, 6]: > 10 µM | AC50 ([1]; RT-qPCR): > 10 µM | IC50 [2]: > 10 µM | IC50 [3, 7]: > 10 µM | IC50 [4, 8]: > 10 µM

Cc1c(O)c(-c2ncc3c(=O)n(N4CCNCC4)ccc3n2)cc2cn(C)nc12 [Compound 1303]
IC50 [1, 9]: 0.1 to 1 µM | IC50 [1, 6]: < 0.1 µM | AC50 ([1]; RT-qPCR): 0.1 to 1 µM | IC50 [2]: 0.1 to 1 µM | IC50 [3, 10]: < 0.1 µM | IC50 [4, 11]: 0.1 to 1 µM

Cc1cn2cc(-c3ccc4c(=O)n(C5CCNCC5)ccc4n3)c(O)cc2n1 [Compound 1240]
IC50 [1, 9]: 1 to 10 µM | IC50 [1, 6]: 1 to 10 µM | AC50 ([1]; RT-qPCR): 1 to 10 µM | IC50 [2]: > 10 µM | IC50 [3, 10]: 0.1 to 1 µM | IC50 [4, 11]: > 10 µM

Cc1cc(-c2cc3ccn(C4CCNCC4)c(=O)c3cn2)cc2cn(C)nc12 [Compound 1204, 6-(2,7-dimethyl-2H-indazol-5-yl)-2-(piperidin-4-yl)-2,7-naphthyridin-1(2H)-one]
IC50 [1, 5]: 0.1 to 1 µM | IC50 [1, 6]: 0.1 to 1 µM | AC50 ([1]; RT-qPCR): 0.1 to 1 µM | IC50 [2]: 1 to 10 µM | IC50 [3, 7]: < 0.1 µM | IC50 [4, 8]: 1 to 10 µM
